Biological target: dog PDE3A recombinant enzyme (Canis lupus familiaris, UniProt A0A8I3NYE0)
Test: cPDE3A assay (fluorescent polarization)
Format: biochemical
Conditions: canine PDE3A, read-out: cPDE3 Inhibition (IC50)
Description: cPDE3A Assay (Fluorescent Polarization)
The canine PDE3A assay kit was purchased from BPS Bioscience (San Diego, CA) which included dog PDE3A recombinant enzyme, FAM-cyclic-3′,5′-AMP (20 μM), PDE3 assay buffer, binding agent, binding agent diluent and microtiter 96-well plates. Compounds were initially dissolved in DMSO. The stock concentration was subsequently diluted in cPDE assay buffer (10× stock) and serially diluted to give a concentration response curve starting at 10 μM (≥7 total concentrations). Following the serial dilution, compound solution (0.1% final DMSO) was transferred to an assay plate (96-well) where the remaining canine PDE3A assay reagents were dispensed according to the BPS Bioscience® protocol (catalog #79735) procedure using a final concentration of 5 pg/μL of enzyme. Each compound was evaluated for the inhibition of the canine PDE3A enzyme activity using the measurement of fluorescent polarization changes. The 50% inhibition concentration (IC50) nM was calculated and reported.

dog PDE3A recombinant enzyme, sequence (A0A8I3NYE0 1-1135): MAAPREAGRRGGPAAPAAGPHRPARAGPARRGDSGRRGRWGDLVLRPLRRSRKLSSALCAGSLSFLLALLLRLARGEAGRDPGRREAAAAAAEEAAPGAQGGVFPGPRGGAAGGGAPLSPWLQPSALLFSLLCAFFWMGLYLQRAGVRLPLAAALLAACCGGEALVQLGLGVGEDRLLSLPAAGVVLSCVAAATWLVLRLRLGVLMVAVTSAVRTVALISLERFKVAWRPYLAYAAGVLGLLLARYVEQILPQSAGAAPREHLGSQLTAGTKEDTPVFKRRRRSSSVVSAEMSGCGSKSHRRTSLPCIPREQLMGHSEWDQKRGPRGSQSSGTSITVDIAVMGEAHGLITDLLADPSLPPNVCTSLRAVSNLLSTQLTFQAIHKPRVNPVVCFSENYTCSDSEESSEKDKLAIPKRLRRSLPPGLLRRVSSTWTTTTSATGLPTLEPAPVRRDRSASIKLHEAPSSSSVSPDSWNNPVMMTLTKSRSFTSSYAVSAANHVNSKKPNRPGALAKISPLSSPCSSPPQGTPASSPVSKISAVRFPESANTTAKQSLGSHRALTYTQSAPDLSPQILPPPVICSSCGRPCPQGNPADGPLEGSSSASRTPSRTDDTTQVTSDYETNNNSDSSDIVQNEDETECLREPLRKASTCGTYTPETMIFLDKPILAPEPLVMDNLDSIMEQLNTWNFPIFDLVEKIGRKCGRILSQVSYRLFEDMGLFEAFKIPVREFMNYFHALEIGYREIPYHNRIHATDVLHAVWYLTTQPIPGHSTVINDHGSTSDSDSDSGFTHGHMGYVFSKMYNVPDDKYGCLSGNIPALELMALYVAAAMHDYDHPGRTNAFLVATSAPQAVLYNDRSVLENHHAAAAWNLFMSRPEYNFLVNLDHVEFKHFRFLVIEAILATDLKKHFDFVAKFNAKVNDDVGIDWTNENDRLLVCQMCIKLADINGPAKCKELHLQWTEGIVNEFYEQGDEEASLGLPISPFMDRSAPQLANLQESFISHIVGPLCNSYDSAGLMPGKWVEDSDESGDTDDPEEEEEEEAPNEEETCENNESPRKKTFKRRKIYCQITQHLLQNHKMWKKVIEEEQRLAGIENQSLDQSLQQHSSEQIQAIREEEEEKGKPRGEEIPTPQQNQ

In order of rising IC50:
1. CC1SC(=O)NN=C1c1cc(Cl)c2nc(O)ccc2c1 (centres unmarked) [compound 81, 5-(8-chloro-2-hydroxyquinolin-6-yl)-6-methyl-3,6-dihydro-2H-1,3,4-thiadiazin-2-one]  3.2 nM
2. CC1SC(=O)NN=C1c1cc(Cl)c2c(c1)CCCC(=O)N2 (centres unmarked) [compound 64, 5-(9-chloro-2-oxo-2,3,4,5-tetrahydro-1H-benzo[b]azepin-7-yl)-6-methyl-3,6-dihydro-2H-1,3,4-thiadiazin-2-one]  3.2 nM
3. Cc1cc(C2=NNC(=O)SC2C)cc2c1NC(=O)CC2 (centres unmarked) [compound 83, 6-methyl-5-(8-methyl-2-oxo-1,2,3,4-tetrahydroquinolin-6-yl)-3,6-dihydro-2H-1,3,4-thiadiazin-2-one]  3.2 nM
4. CC1CC(=O)NN=C1c1cc(F)c2nc(NCc3cnn(C)c3)sc2c1 (centres unmarked) [Example #46, 6-(4-fluoro-2-(((1-methyl-1H-pyrazol-4-yl)methyl)amino)benzo[d]thiazol-6-yl)-5-methyl-4,5-dihydropyridazin-3 (2H)-one]  3.4 nM
5. CC1CC(=O)NN=C1c1cc2c(c(Cl)c1F)NC(=O)C2(C)C (centres unmarked) [Example #36, 7-chloro-6-fluoro-3,3-dimethyl-5-(4-methyl-6-oxo-1,4,5,6-tetrahydropyridazin-3-yl)indolin-2-one]  3.6 nM
6. CNc1nc2c(F)cc(C3=NNC(=O)CC3C)cc2s1 (centres unmarked) [Example #34, 6-(4-fluoro-2-(methylamino)benzo[d]thiazol-6-yl)-5-methyl-4,5-dihydropyridazin-3 (2H)-one]  3.7 nM
7. Cc1n[nH]c2c(Cl)cc(C3=NNC(=O)CC3C)cc12 (centres unmarked) [Example #47, 6-(7-chloro-3-methyl-1H-indazol-5-yl)-5-methyl-4,5-dihydropyridazin-3 (2H)-one]  4 nM
8. CC1CC(=O)NN=C1c1cc(F)c2c(c1)CC(=O)N2 (centres unmarked) [Example #50, 7-fluoro-5-(4-methyl-6-oxo-1,4,5,6-tetrahydropyridazin-3-yl)indolin-2-one]  4.9 nM
9. CC1CC(=O)NN=C1c1ccc2nc(Nc3ccc(S(C)(=O)=O)cc3)n(C)c2c1 (centres unmarked) [Example #5, 5-methyl-6-(1-methyl-2-((4-(methylsulfonyl)phenyl)amino)-1H-benzo[d]imidazol-6-yl)-4,5-dihydropyridazin-3 (2H)-one]  4.9 nM
10. CC1CC(=O)NN=C1c1ccc2nc(Nc3ccc(S(C)(=O)=O)cc3)n(C3CC3)c2c1 (centres unmarked) [compound 16, 6-(1-cyclopropyl-2-((4-(methylsulfonyl)phenyl)amino)-1H-benzo[d]imidazol-6-yl)-5-methyl-4,5-dihydropyridazin-3 (2H)-one]  5 nM
11. CC1SC(=O)NN=C1c1cc(Br)c2c(c1)CC(=O)N2 (centres unmarked) [compound 69, 5-(7-bromo-2-oxoindolin-5-yl)-6-methyl-3,6-dihydro-2H-1,3,4-thiadiazin-2-one]  10.9 nM
12. CC1CC(=O)NN=C1c1cc(Cl)c2c(c1)C(C)(C)NC2=O (centres unmarked) [Example #41, 7-chloro-3,3-dimethyl-5-(4-methyl-6-oxo-1,4,5,6-tetrahydropyridazin-3-yl)isoindolin-1-one]  15.4 nM
13. CC1CC(=O)NN=C1c1cc(Cl)c2[nH]c(=O)n(C)c2c1 (centres unmarked) [Example #42, 4-chloro-1-methyl-6-(4-methyl-6-oxo-1,4,5,6-tetrahydropyridazin-3-yl)-1,3-dihydro-2H-benzo[d]imidazol-2-one]  16.2 nM
14. Cc1cc(C2=NNC(=O)CC2)cc2sc(=O)[nH]c12 [compound 15, 4-methyl-6-(6-oxo-1,4,5,6-tetrahydropyridazin-3-yl)benzo[d]thiazol-2 (3H)-one]  17.6 nM
15. CC1SC(=O)NN=C1c1cc(Cl)c2c(c1)CNC2=O (centres unmarked) [Example #79, 5-(7-chloro-1-oxoisoindolin-5-yl)-6-methyl-3,6-dihydro-2H-1,3,4-thiadiazin-2-one]  20.3 nM
16. CC1SC(=O)NN=C1c1cc(Cl)c2c(c1)C(C)(C)NC2=O (centres unmarked) [Example #80, 5-(7-chloro-3,3-dimethyl-1-oxoisoindolin-5-yl)-6-methyl-3,6-dihydro-2H-1,3,4-thiadiazin-2-one]  20.6 nM
17. CC1(C)C(=O)Nc2c(Br)cc(-c3ccc(=O)[nH]n3)cc21 [Example #32, 7-bromo-3,3-dimethyl-5-(6-oxo-1,6-dihydropyridazin-3-yl)indolin-2-one]  26.7 nM
18. COc1cc(-c2cc(C3=NNC(=O)CC3C)cc3c2NC(=O)CC3)ccn1 (centres unmarked) [Example #1, 8-(2-methoxypyridin-4-yl)-6-(4-methyl-6-oxo-1,4,5,6-tetrahydropyridazin-3-yl)-3,4-dihydroquinolin-2 (1H)-one]  29.2 nM
19. CC1CC(=O)NN=C1c1cc2c(c(-c3nccs3)c1)NC(=O)CCC2 (centres unmarked) [compound 20, 7-(4-methyl-6-oxo-1,4,5,6-tetrahydropyridazin-3-yl)-9-(thiazol-2-yl)-1,3,4,5-tetrahydro-2H-benzo[b]azepin-2-one]  32.4 nM
20. CC1CC(=O)NN=C1c1cc(C#N)c2c(c1)CC(=O)N2 (centres unmarked) [compound 53, 5-(4-methyl-6-oxo-1,4,5,6-tetrahydropyridazin-3-yl)-2-oxoindoline-7-carbonitrile]  32.7 nM
21. CC1(C)C(=O)Nc2c(F)cc(-c3ccc(=O)[nH]n3)cc21 [Example #27, 7-fluoro-3,3-dimethyl-5-(6-oxo-1,6-dihydropyridazin-3-yl)indolin-2-one]  38.3 nM
22. O=C1Cc2cc(-c3ccc(=O)[nH]n3)cc(-c3ccc(Cl)cc3)c2N1 [Example #7, 7-(4-chlorophenyl)-5-(6-oxo-1,6-dihydropyridazin-3-yl)indolin-2-one]  40.6 nM
23. COc1ccc(-c2cc(C3=NNC(=O)CC3C)cc3c2NC(=O)CCC3)cn1 (centres unmarked) [Example #18, 9-(6-methoxypyridin-3-yl)-7-(4-methyl-6-oxo-1,4,5,6-tetrahydropyridazin-3-yl)-1,3,4,5-tetrahydro-2H-benzo[b]azepin-2-one]  42.1 nM
24. CC1CC(=O)NN=C1c1cc2c(c(-c3cccnc3)c1)NC(=O)CC2 (centres unmarked) [Example #13, 6-(4-methyl-6-oxo-1,4,5,6-tetrahydropyridazin-3-yl)-8-(pyridin-3-yl)-3,4-dihydroquinolin-2 (1H)-one]  44.4 nM
25. C[C@H]1SC(=O)NN=C1c1cc(Cl)c2c(c1)C(C)(C)CC(=O)N2 [Example #67, (6R)-5-(8-chloro-4,4-dimethyl-2-oxo-1,2,3,4-tetrahydroquinolin-6-yl)-6-methyl-3,6-dihydro-2H-1,3,4-thiadiazin-2-one]  48.3 nM
26. COC1CN(c2nc3ccc(C4=NNC(=O)CC4C)cc3s2)C1 (centres unmarked) [compound 49, 6-(2-(3-methoxyazetidin-1-yl)benzo[d]thiazol-6-yl)-5-methyl-4,5-dihydropyridazin-3 (2H)-one]  48.6 nM
27. CC1CC(=O)NN=C1c1cc(Br)c2c(c1)C(C)(C)CC(=O)N2 (centres unmarked) [compound 11, 8-bromo-4,4-dimethyl-6-(4-methyl-6-oxo-1,4,5,6-tetrahydropyridazin-3-yl)-3,4-dihydroquinolin-2 (1H)-one]  51.3 nM
28. CC1SC(=O)NN=C1c1cc2c(c(-c3ccccc3)c1)NC(=O)C2 (centres unmarked) [compound 70, 6-methyl-5-(2-oxo-7-phenylindolin-5-yl)-3,6-dihydro-2H-1,3,4-thiadiazin-2-one]  80.7 nM
29. O=C1Cc2cc(-c3cc(Cl)c4[nH]c(=O)oc4c3)cnc2N1 [Example #84, 4-chloro-6-(2-oxo-2,3-dihydro-1H-pyrrolo[2,3-b]pyridin-5-yl)benzo[d]oxazol-2 (3H)-one]  112 nM

— patent US20240308973A1, “PHOSPHODIESTERASE 3 (PDE3) INHIBITORS” (Zoetis Services LLC, priority 2023, published 2024)
